The source of these data is ChEMBL document CHEMBL4020782, “Design, synthesis and biological evaluation of 4-piperazinyl-containing Chidamide derivatives as HDACs inhibitors” (Bioorg Med Chem Lett, 2017).

The target in data set [1] is T1, Histone deacetylase 1 (Homo sapiens, UniProt Q13547). Description: Inhibition of recombinant human HDAC1 using a fluorogenic substrate at 1 uM by fluorescence method.
In data set [2] the target is T1, Histone deacetylase 1. Description: Inhibition of recombinant human HDAC1 using a fluorogenic substrate at 10 uM by fluorescence method.
Data set [3] concerns the target T1, Histone deacetylase 1. Description: Inhibition of recombinant human HDAC1 expressed in Baculovirus insect cell expression system using [3H]-metabolically labeled acetylated histone substrate after 30 mins by scintillation counting.
Data set [4] has as its system PC-3. Description: Antitumor activity against human PC3 cells xenografted in nude mouse assessed as tumor growth inhibition at 100 mg/kg, ig administered 7 days per week for 3 weeks. It counts as functional. The following applies: PC-3, po, read-out: TGI.
Data set [5] can be described thus: Oral bioavailability in Sprague-Dawley rat at 10 mg/kg administered as single dose by HPLC-MS method. Particulars: in vivo. It counts as ADME, organism-based.
Data set [6] has as its system Mus musculus. Description: Toxicity in mouse xenografted with HCT116 cells assessed as weight loss at 25 mg/kg, po daily for 21 days. It is filed as organism-based. Particulars: in vivo, 504 h.
Data set [7] can be described thus: Cmax in Sprague-Dawley rat at 10 mg/kg, po administered as single dose by HPLC-MS method. It counts as ADME, organism-based. On the set-up: dose 10 mg/kg, route oral. The following applies: in vivo.
In data set [8] the target is Voltage-gated inwardly rectifying potassium channel KCNH2 (Homo sapiens, UniProt Q12809). Description: Inhibition of recombinant human ERG expressed in HEK293 cells after 9 mins by patch clamp method.
Voltage-gated inwardly rectifying potassium channel KCNH2, sequence (Q12809 whole entry): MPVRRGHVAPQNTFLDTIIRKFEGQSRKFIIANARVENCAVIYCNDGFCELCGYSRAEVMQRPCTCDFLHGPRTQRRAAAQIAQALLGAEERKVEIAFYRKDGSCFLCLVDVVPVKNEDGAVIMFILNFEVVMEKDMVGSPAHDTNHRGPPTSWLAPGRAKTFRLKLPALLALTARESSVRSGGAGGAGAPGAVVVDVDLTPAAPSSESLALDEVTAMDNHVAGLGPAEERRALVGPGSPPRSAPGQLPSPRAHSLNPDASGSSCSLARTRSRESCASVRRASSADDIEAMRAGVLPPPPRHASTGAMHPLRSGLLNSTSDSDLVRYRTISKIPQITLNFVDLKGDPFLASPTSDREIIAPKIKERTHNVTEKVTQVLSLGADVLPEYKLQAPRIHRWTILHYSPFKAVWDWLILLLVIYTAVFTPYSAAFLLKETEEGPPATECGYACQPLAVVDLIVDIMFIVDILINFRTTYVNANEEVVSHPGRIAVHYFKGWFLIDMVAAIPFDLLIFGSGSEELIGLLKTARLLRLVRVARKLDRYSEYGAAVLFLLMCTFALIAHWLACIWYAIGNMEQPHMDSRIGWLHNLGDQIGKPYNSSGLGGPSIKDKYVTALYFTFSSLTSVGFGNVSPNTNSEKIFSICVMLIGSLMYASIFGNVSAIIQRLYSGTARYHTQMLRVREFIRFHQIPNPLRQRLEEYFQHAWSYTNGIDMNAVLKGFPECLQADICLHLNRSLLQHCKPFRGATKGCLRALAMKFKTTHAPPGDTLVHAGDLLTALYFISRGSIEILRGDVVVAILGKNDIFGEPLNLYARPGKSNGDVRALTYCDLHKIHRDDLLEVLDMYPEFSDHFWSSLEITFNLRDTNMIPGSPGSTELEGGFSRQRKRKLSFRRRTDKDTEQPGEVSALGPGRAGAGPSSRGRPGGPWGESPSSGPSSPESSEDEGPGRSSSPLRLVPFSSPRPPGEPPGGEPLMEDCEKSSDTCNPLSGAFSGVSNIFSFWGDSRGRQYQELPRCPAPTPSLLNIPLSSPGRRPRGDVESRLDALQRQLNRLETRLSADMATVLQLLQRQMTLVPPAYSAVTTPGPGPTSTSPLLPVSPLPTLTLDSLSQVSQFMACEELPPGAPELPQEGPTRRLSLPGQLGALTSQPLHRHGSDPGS
The subject of data set [9] is HCT-116. Description: Antitumor activity against human HCT116 cells xenografted in po dosed mouse assessed as tumor growth inhibition administered daily for 21 days. It is filed as functional, organism-based. For orientation: A xenograft is tissue or cells of one species grown in another, often human tumour cells in immunodeficient mice.
For data set [10], the target named is T1, Histone deacetylase 1. Nature of the data set: Inhibition of recombinant human HDAC1 using a fluorogenic substrate by fluorescence method.
For data set [11], the system named is HCT-116. Nature of the data set: Antitumor activity against human HCT116 cells xenografted in mouse assessed as tumor growth inhibition at 25 mg/kg, po daily for 21 days. The following applies: HCT-116, po, 504 h, read-out: TGI. It is filed as functional.
Data set [12] is described as follows: Clearance in Sprague-Dawley rat at 2 mg/kg, iv administered as single dose by HPLC-MS method. It counts as ADME, organism-based. Particulars: in vivo.
The test system of a further data set is K562. Description: Antiproliferative activity against human K562 cells after 48 to 72 hrs by MTT assay. It is filed as functional, cell-based.
Data set [13] in a line: Terminal half life in Sprague-Dawley rat at 2 mg/kg, iv administered as single dose by HPLC-MS method. It counts as ADME, organism-based. The following applies: in vivo, read-out: beta t1/2 (converted).
The test system of data set [14] is HCT-116. Nature of the data set: Antiproliferative activity against human HCT116 cells after 48 to 72 hrs by MTT assay. It is filed as functional, cell-based. Background: Tetrazolium dyes change colour on reduction, which living cells bring about.
Data set [15] has as its system HCT-116. Description: Antitumor activity against human HCT116 cells xenografted in mouse assessed as tumor growth inhibition at 100 mg/kg, po daily for 21 days. The following applies: HCT-116, po, 504 h, read-out: TGI. It counts as functional.
Data set [16] concerns Mus musculus. Nature of the data set: Toxicity in mouse xenografted with HCT116 cells assessed as weight loss at 100 mg/kg, po daily measured for 12 days. It is filed as organism-based. The following applies: in vivo, 288 h.
Data set [17] is described as follows: Tmax in Sprague-Dawley rat at 10 mg/kg, po administered as single dose by HPLC-MS method. It counts as ADME, organism-based. Particulars: in vivo.
The next data set relates to MRC5. Nature of the data set: Antiproliferative activity against human MRC5 cells after 48 to 72 hrs by MTT assay. It counts as cell-based.
The test system of data set [18] is PC-3. Nature of the data set: Antiproliferative activity against human PC3 cells after 48 to 72 hrs by MTT assay. It counts as functional, cell-based.
Another data set concerns A549. Nature of the data set: Antiproliferative activity against human A549 cells after 48 to 72 hrs by MTT assay. It is filed as functional, cell-based.
A short description of data set [19]: AUC in Sprague-Dawley rat at 10 mg/kg, po administered as single dose by HPLC-MS method. It is filed as ADME, organism-based. The following applies: in vivo.
The subject of data set [20] is Mus musculus. Description: Toxicity in mouse xenografted with HCT116 cells assessed as weight loss at 50 mg/kg, po daily for 21 days. It is filed as organism-based. Particulars: in vivo, 504 h.
Data set [21] has as its system HCT-116. Nature of the data set: Antitumor activity against human HCT116 cells xenografted in mouse assessed as tumor growth inhibition at 50 mg/kg, po daily for 21 days. It is filed as functional. The following applies: HCT-116, po, 504 h, read-out: TGI.
Data set [22] is described as follows: Volume of distribution at steady state in Sprague-Dawley rat at 2 mg/kg, iv administered as single dose by HPLC-MS method. It counts as ADME, organism-based. The following applies: in vivo, read-out: Vdss.

T1 sequence (Q13547 whole entry): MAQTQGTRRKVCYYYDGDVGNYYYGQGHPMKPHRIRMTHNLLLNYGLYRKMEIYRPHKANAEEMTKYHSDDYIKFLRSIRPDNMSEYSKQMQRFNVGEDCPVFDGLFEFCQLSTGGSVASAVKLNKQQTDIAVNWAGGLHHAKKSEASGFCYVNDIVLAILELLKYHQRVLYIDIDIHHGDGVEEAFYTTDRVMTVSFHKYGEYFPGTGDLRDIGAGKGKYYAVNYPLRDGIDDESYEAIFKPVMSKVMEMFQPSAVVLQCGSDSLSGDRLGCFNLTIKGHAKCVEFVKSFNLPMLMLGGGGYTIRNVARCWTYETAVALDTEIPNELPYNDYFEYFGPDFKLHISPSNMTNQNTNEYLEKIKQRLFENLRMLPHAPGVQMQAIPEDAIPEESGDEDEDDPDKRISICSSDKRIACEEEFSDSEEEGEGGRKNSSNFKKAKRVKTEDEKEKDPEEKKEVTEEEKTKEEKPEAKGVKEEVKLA

By inhibition is commonly meant the percentage by which the read-out fell short of the control. Take `COc1cc(/C=C/C(=O)N2CCN(c3ccc(C(=O)Nc4ccccc4N)cc3)CC2)cc(OC)c1OC`: the values for the inhibition at Histone deacetylase 1 [1] and on Histone deacetylase 1 [2] were 21.8% and 60.5%, respectively.
In the same order, the values of `Nc1cc(F)ccc1NC(=O)c1ccc(N2CCN(C(=O)/C=C/c3ccc(F)cc3)CC2)cc1` are 36% and 58.8%.
Broadly, the IC50 is the concentration that gives 50% inhibition. As for `COc1ccc(/C=C/C(=O)NCc2ccc(C(=O)Nc3ccncc3N)cc2)cc1`, the IC50 on Histone deacetylase 1 [3] worked out at 3.3 µM. The inhibition in vivo at 100 mg/kg with PC-3 [4] came out at 39%.
For the compound `Nc1cc(F)ccc1NC(=O)c1ccc(N2CCN(C(=O)/C=C/c3cccnc3)CC2)cc1`, the figures for the inhibition on Histone deacetylase 1 [1] and on Histone deacetylase 1 [2] were 4.71% and 19.2%, respectively.
As to `Nc1cc(F)ccc1NC(=O)c1ccc(N2CCN(C(=O)/C=C/c3ccc4c(c3)OCO4)CC2)cc1`, the inhibition amounted to 18% on Histone deacetylase 1 [1] and 53.4% on Histone deacetylase 1 [2].
For `Nc1ccccc1NC(=O)c1ccc(N2CCN(C(=O)/C=C/c3cccnc3)CC2)cc1`, the values for the inhibition at Histone deacetylase 1 [1] and at Histone deacetylase 1 [2] were 18.1% and 53.8%, respectively.
Take `COc1ccc(/C=C/C(=O)N2CCN(c3ccc(C(=O)Nc4ccccc4N)cc3)CC2)cc1OC`: the inhibition at Histone deacetylase 1 [1] was found to be 46.5%; on Histone deacetylase 1 [2] it was 79.2%.
As a reminder, the bioavailability is dose-corrected exposure relative to a reference, in per cent. Low readings indicate poor availability, high ones good availability. One may read the Cmax as the highest concentration seen after dosing. A word on the clearance: it is the rate of elimination divided by the concentration. For orientation: Tmax means the time at which the peak concentration occurs. For orientation: AUC means the area under the concentration-time curve, a measure of exposure. A high value points to more exposure. As for `Cc1ccc(/C=C/C(=O)N2CCN(c3ccc(C(=O)Nc4ccccc4N)cc3)CC2)cc1`, the bioavailability in [5] was determined as 36.3%. The Activity in the data set on Mus musculus [6] is reported as less than 5%; in the data set with Mus musculus [16], 19.2%; in the data set on Mus musculus [20], 11.3%. The figures for the inhibition at Histone deacetylase 1 [1] and at Histone deacetylase 1 [2] were 56.3% and 94.2%, respectively. The Cmax in data set [7] was found to be 2510 ng/mL. In addition, the IC50 in data set [8] is 27.1 µM; on Histone deacetylase 1 [10], 798 nM; in the data set on K562 it was 4860 nM; in the data set on HCT-116 [14] it was 69 nM; with MRC5 it was greater than 30 µM; with PC-3 [18] it was 3.96 µM. This compound displayed an IC50 in the data set on A549 of 135 nM. In the data set on HCT-116 [9], the TGI entry was “Dose-dependent effect”. In the data set with HCT-116 [11], the inhibition in vivo at 25 mg/kg amounted to 42.4%. Further, in data set [12], the clearance is 7.5 mL/min/kg. Moreover, the half-life in data set [13] was 64.2 min. For the same compound, the inhibition in vivo at 100 mg/kg with HCT-116 [15] was found to be 76.3%. In [17], the Tmax is 25.8 min. For the same compound, the AUC in data set [19] amounted to 8910 ng·h/mL. Further, the inhibition in vivo at 50 mg/kg in the data set on HCT-116 [21] came to 55.1%. The Vd in data set [22] is 0.11 L/kg.
Turning to `Cc1ccc(/C=C/C(=O)N2CCN(c3ccc(C(=O)Nc4ccc(F)cc4N)cc3)CC2)cc1`, the inhibition at Histone deacetylase 1 [1] came to 17.4%; at Histone deacetylase 1 [2] it was 64.3%.
On to `Nc1ccc(F)cc1NC(=O)c1ccc(CNC(=O)/C=C/c2cccnc2)cc1`, for which the inhibition at Histone deacetylase 1 [1] turned out to be 55.1%; on Histone deacetylase 1 [2], 81.3%. The IC50 with K562 was 975 nM; in the data set on HCT-116 [14], 202 nM; in the data set with MRC5 it was greater than 30 µM; with PC-3 [18], 2.09 µM; in the data set on A549 it was 665 nM.
Consider `Nc1ccccc1NC(=O)c1ccc(N2CCN(C(=O)/C=C/c3ccc(F)cc3)CC2)cc1`, for which the inhibition on Histone deacetylase 1 [1] was found to be 52%; at Histone deacetylase 1 [2], 79%. The IC50 is 983 nM on Histone deacetylase 1 [10]; 1100 nM in the data set on K562; 1980 nM with HCT-116 [14]; greater than 30 µM in the data set with MRC5; 2.14 µM in the data set with PC-3 [18]; 811 nM in the data set with A549.
Consider `Nc1ccccc1NC(=O)c1ccc(N2CCN(C(=O)/C=C/c3ccccc3)CC2)cc1`, for which the inhibition on Histone deacetylase 1 [1] was determined as 34.3%; at Histone deacetylase 1 [2], 66.8%.
Turning to `Nc1ccccc1NC(=O)c1ccc(N2CCN(C(=O)/C=C/c3ccc4c(c3)OCO4)CC2)cc1`, the inhibition at Histone deacetylase 1 [1] stood at 49.6%; at Histone deacetylase 1 [2], 75.5%.
Turning to `COc1ccc(/C=C/C(=O)N2CCN(c3ccc(C(=O)Nc4ccccc4N)cc3)CC2)cc1`, the inhibition was determined as 50.2% on Histone deacetylase 1 [1] and 87.8% on Histone deacetylase 1 [2]. For the same compound, the IC50 in [8] was 25.1 µM; on Histone deacetylase 1 [10] it was 903 nM; in the data set with K562, 2960 nM; in the data set on HCT-116 [14], 765 nM; in the data set on MRC5 it was greater than 30 µM; in the data set on PC-3 [18] it was 8.71 µM. For the same compound, the IC50 in the data set on A549 is 530 nM.
For `COc1cccc(/C=C/C(=O)N2CCN(c3ccc(C(=O)Nc4ccccc4N)cc3)CC2)c1`, the results for the inhibition on Histone deacetylase 1 [1] and on Histone deacetylase 1 [2] were 45.3% and 66.9%, respectively.
